Reference: ChEMBL document CHEMBL1201862, “PubChem BioAssay data set” (2004)
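1) Cells in 96-well plates. 2) Compound, 48 h, 5 concentrations. 3) Linear interpolation between surrounding doses. 4) Unreached endpoint = highest concentration. The concentration for 50% growth inhibition is given as GI50.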 Calls of active or inactive are those of the source. No stated cut-off is given here; in the data, active = GI50 up to about 1.1 µM and inactive = higher.

Key:
Assay in all cases: NCI anticancer screen, dose series, 48 h
786-0 = test system: 786-0
A498 = test system: A498
A549 = test system: A549
ACHN = test system: ACHN
CAKI-1 = test system: CAKI-1
CCRF-CEM = test system: CCRF-CEM
COLO 205 = test system: COLO 205
DLD-1 = test system: DLD-1
DMS-273 = test system: DMS-273
HCC 2998 = test system: HCC 2998
HCT-116 = test system: HCT-116
HCT-15 = test system: HCT-15
HL-60 = test system: HL-60
HOP-62 = test system: HOP-62
HOP-92 = test system: HOP-92
HT-29 = test system: HT-29
IGROV-1 = test system: IGROV-1
K562 = test system: K562
KM12 = test system: KM12
LOX IMVI = test system: LOX IMVI
LXFL 529 = test system: LXFL 529
M14 = test system: M14
MOLT-4 = test system: MOLT-4
Malme-3M = test system: Malme-3M
NCI-H23 = test system: NCI-H23
NCI-H460 = test system: NCI-H460
NCI-H522 = test system: NCI-H522
OVCAR-3 = test system: OVCAR-3
OVCAR-5 = test system: OVCAR-5
OVCAR-8 = test system: OVCAR-8
RXF 631 = test system: RXF 631
SF-268 = test system: SF-268
SF-295 = test system: SF-295
SF-539 = test system: SF-539
SK-MEL-28 = test system: SK-MEL-28
SK-MEL-2 = test system: SK-MEL-2
SK-OV-3 = test system: SK-OV-3
SN12C = test system: SN12C
SNB-19 = test system: SNB-19
SNB-75 = test system: SNB-75
SNB-78 = test system: SNB-78
SR = test system: SR
SW-620 = test system: SW-620
TK-10 = test system: TK-10
U-251 = test system: U-251
UACC-257 = test system: UACC-257
UACC-62 = test system: UACC-62
UO-31 = test system: UO-31
XF498 = test system: XF498
BT-549 = test system: BT-549
DMS-114 = test system: DMS-114
DU-145 = test system: DU-145
EKVX = test system: EKVX
HOP-18 = test system: HOP-18
Hs-578T = test system: Hs-578T
KM-20L2 = test system: KM-20L2
M19-MEL = test system: M19-MEL
MCF7 = test system: MCF7
MDA-MB-231 = test system: MDA-MB-231
MDA-MB-435 = test system: MDA-MB-435
MDA-N = test system: MDA-N
NCI-H226 = test system: NCI-H226
NCI/ADR-RES = test system: NCI/ADR-RES
OVCAR-4 = test system: OVCAR-4
PC-3 = test system: PC-3
RPMI-8226 = test system: RPMI-8226
RXF 393 = test system: RXF 393
SK-MEL-5 = test system: SK-MEL-5
T47D = test system: T47D

Question: `COC1=NN2C(OC)(c3ccccc3)c3c(-c4ccccc4)sc(-c4ccccc4)c3C2(c2ccccc2)S1` (configuration not stated) was tested. Which GI50 (786-0) did it give?
Answer: > 100 µM (inactive)

Question: What about the GI50 (A498) of the same molecule?
Answer: > 100 µM (inactive)

Question: What about the GI50 (A549) of the same molecule?
Answer: > 100 µM (inactive)

Question: And the GI50 (ACHN)?
Answer: > 100 µM (inactive)

Question: And the GI50 (CAKI-1)?
Answer: > 100 µM (inactive)

Question: What about the GI50 (CCRF-CEM) of the same molecule?
Answer: > 100 µM (inactive)

Question: And the GI50 (COLO 205)?
Answer: > 100 µM (inactive)

Question: What about the GI50 (DLD-1) of the same molecule?
Answer: > 100 µM (inactive)

Question: What about the GI50 (DMS-273) of the same molecule?
Answer: > 100 µM (inactive)

Question: What about the GI50 (HCC 2998) of the same molecule?
Answer: > 100 µM (inactive)

Question: And the GI50 (HCT-116)?
Answer: > 100 µM (inactive)

Question: What about the GI50 (HCT-15) of the same molecule?
Answer: > 100 µM

Question: What about the GI50 (HL-60) of the same molecule?
Answer: > 100 µM (inactive)

Question: What about the GI50 (HOP-62) of the same molecule?
Answer: > 10 µM (inactive)

Question: And the GI50 (HOP-92)?
Answer: > 100 µM (inactive)

Question: What about the GI50 (HT-29) of the same molecule?
Answer: > 100 µM (inactive)

Question: What about the GI50 (IGROV-1) of the same molecule?
Answer: > 100 µM (inactive)

Question: And the GI50 (K562)?
Answer: > 100 µM (inactive)

Question: And the GI50 (KM12)?
Answer: > 100 µM (inactive)

Question: What about the GI50 (LOX IMVI) of the same molecule?
Answer: > 100 µM (inactive)

Question: What about the GI50 (LXFL 529) of the same molecule?
Answer: > 100 µM (inactive)

Question: What about the GI50 (M14) of the same molecule?
Answer: > 10 µM (inactive)

Question: What about the GI50 (MOLT-4) of the same molecule?
Answer: > 100 µM (inactive)

Question: What about the GI50 (Malme-3M) of the same molecule?
Answer: > 100 µM (inactive)

Question: And the GI50 (NCI-H23)?
Answer: > 100 µM (inactive)

Question: What about the GI50 (NCI-H460) of the same molecule?
Answer: > 100 µM (inactive)

Question: And the GI50 (NCI-H522)?
Answer: > 100 µM (inactive)

Question: What about the GI50 (OVCAR-3) of the same molecule?
Answer: > 10 µM (inactive)

Question: What about the GI50 (OVCAR-5) of the same molecule?
Answer: > 100 µM (inactive)

Question: What about the GI50 (OVCAR-8) of the same molecule?
Answer: > 100 µM (inactive)

Question: And the GI50 (RXF 631)?
Answer: > 100 µM (inactive)

Question: And the GI50 (SF-268)?
Answer: > 100 µM (inactive)

Question: And the GI50 (SF-295)?
Answer: > 100 µM (inactive)

Question: What about the GI50 (SF-539) of the same molecule?
Answer: > 100 µM (inactive)

Question: And the GI50 (SK-MEL-28)?
Answer: > 100 µM (inactive)

Question: And the GI50 (SK-MEL-2)?
Answer: > 100 µM (inactive)

Question: And the GI50 (SK-OV-3)?
Answer: > 100 µM (inactive)

Question: And the GI50 (SN12C)?
Answer: > 100 µM (inactive)

Question: What about the GI50 (SNB-19) of the same molecule?
Answer: > 100 µM (inactive)

Question: What about the GI50 (SNB-75) of the same molecule?
Answer: > 100 µM (inactive)

Question: And the GI50 (SNB-78)?
Answer: > 100 µM (inactive)

Question: And the GI50 (SR)?
Answer: > 100 µM (inactive)

Question: What about the GI50 (SW-620) of the same molecule?
Answer: > 100 µM (inactive)

Question: And the GI50 (TK-10)?
Answer: > 100 µM (inactive)

Question: What about the GI50 (U-251) of the same molecule?
Answer: > 100 µM (inactive)

Question: And the GI50 (UACC-257)?
Answer: > 100 µM (inactive)

Question: What about the GI50 (UACC-62) of the same molecule?
Answer: > 100 µM (inactive)

Question: What about the GI50 (UO-31) of the same molecule?
Answer: > 100 µM (inactive)

Question: And the GI50 (XF498)?
Answer: > 100 µM (inactive)

Question: `CC(=O)Oc1ccc(C(c2ccc(OC(C)=O)cc2)c2ccccn2)cc1` [BISACODYL] was tested. Which GI50 (786-0) did it give?
Answer: > 91.6 µM (inactive)

Question: And the GI50 (A498)?
Answer: 59 µM (inactive)

Question: And the GI50 (A549)?
Answer: 91.4 µM (inactive)

Question: And the GI50 (ACHN)?
Answer: 78.7 µM (inactive)

Question: And the GI50 (BT-549)?
Answer: 0.0843 µM (active)

Question: And the GI50 (CAKI-1)?
Answer: > 100 µM (inactive)

Question: And the GI50 (CCRF-CEM)?
Answer: 71.1 µM (inactive)

Question: And the GI50 (COLO 205)?
Answer: 0.406 µM (active)

Question: What about the GI50 (DLD-1) of the same molecule?
Answer: 7.11 µM (inactive)

Question: What about the GI50 (DMS-114) of the same molecule?
Answer: 0.57 µM (active)

Question: And the GI50 (DMS-273)?
Answer: > 100 µM (inactive)

Question: And the GI50 (DU-145)?
Answer: > 84.3 µM (inactive)

Question: What about the GI50 (EKVX) of the same molecule?
Answer: 18.8 µM (inactive)

Question: And the GI50 (HCC 2998)?
Answer: 2.9 µM (inactive)

Question: What about the GI50 (HCT-116) of the same molecule?
Answer: 70.6 µM (inactive)

Question: What about the GI50 (HCT-15) of the same molecule?
Answer: 39.7 µM

Question: What about the GI50 (HL-60) of the same molecule?
Answer: 36.2 µM (inactive)

Question: And the GI50 (HOP-18)?
Answer: > 47 µM (inactive)

Question: What about the GI50 (HOP-62) of the same molecule?
Answer: > 92.7 µM (inactive)

Question: What about the GI50 (HOP-92) of the same molecule?
Answer: 36.8 µM (inactive)

Question: What about the GI50 (HT-29) of the same molecule?
Answer: > 93.5 µM (inactive)

Question: And the GI50 (Hs-578T)?
Answer: 0.232 µM (active)

Question: And the GI50 (IGROV-1)?
Answer: 71.6 µM (inactive)

Question: And the GI50 (K562)?
Answer: 59.4 µM (inactive)

Question: And the GI50 (KM-20L2)?
Answer: 54.2 µM (inactive)

Question: And the GI50 (KM12)?
Answer: 70.3 µM (inactive)

Question: And the GI50 (LOX IMVI)?
Answer: 29.2 µM (inactive)

Question: What about the GI50 (LXFL 529) of the same molecule?
Answer: 28.8 µM (inactive)

Question: And the GI50 (M14)?
Answer: > 93.5 µM (inactive)

Question: And the GI50 (M19-MEL)?
Answer: 97.5 µM (inactive)

Question: What about the GI50 (MCF7) of the same molecule?
Answer: 0.378 µM (active)

Question: What about the GI50 (MDA-MB-231) of the same molecule?
Answer: 54.7 µM (inactive)

Question: And the GI50 (MDA-MB-435)?
Answer: 76.4 µM (inactive)

Question: What about the GI50 (MDA-N) of the same molecule?
Answer: > 87.9 µM (inactive)

Question: And the GI50 (MOLT-4)?
Answer: 57 µM (inactive)

Question: What about the GI50 (Malme-3M) of the same molecule?
Answer: 78.5 µM (inactive)

Question: What about the GI50 (NCI-H226) of the same molecule?
Answer: 87.3 µM (inactive)

Question: What about the GI50 (NCI-H23) of the same molecule?
Answer: 3.83 µM (inactive)

Question: What about the GI50 (NCI-H460) of the same molecule?
Answer: 99.1 µM (inactive)

Question: And the GI50 (NCI-H522)?
Answer: 76.7 µM (inactive)

Question: What about the GI50 (NCI/ADR-RES) of the same molecule?
Answer: 1.32 µM (inactive)

Question: And the GI50 (OVCAR-3)?
Answer: 0.219 µM (active)

Question: And the GI50 (OVCAR-4)?
Answer: 0.146 µM (active)

Question: And the GI50 (OVCAR-5)?
Answer: 22.1 µM (inactive)

Question: What about the GI50 (OVCAR-8) of the same molecule?
Answer: 1.4 µM (inactive)

Question: And the GI50 (PC-3)?
Answer: 26.5 µM (inactive)

Question: And the GI50 (RPMI-8226)?
Answer: 65.3 µM (inactive)

Question: What about the GI50 (RXF 393) of the same molecule?
Answer: 13.8 µM (inactive)

Question: And the GI50 (RXF 631)?
Answer: > 100 µM (inactive)

Question: And the GI50 (SF-268)?
Answer: > 100 µM (inactive)

Question: And the GI50 (SF-295)?
Answer: 64.3 µM (inactive)

Question: And the GI50 (SF-539)?
Answer: > 91.2 µM (inactive)

Question: What about the GI50 (SK-MEL-28) of the same molecule?
Answer: > 100 µM (inactive)

Question: And the GI50 (SK-MEL-2)?
Answer: 98.6 µM (inactive)

Question: What about the GI50 (SK-MEL-5) of the same molecule?
Answer: 68.4 µM (inactive)

Question: And the GI50 (SK-OV-3)?
Answer: 59.4 µM (inactive)

Question: What about the GI50 (SN12C) of the same molecule?
Answer: 7.16 µM (inactive)

Question: What about the GI50 (SNB-19) of the same molecule?
Answer: > 100 µM (inactive)

Question: What about the GI50 (SNB-75) of the same molecule?
Answer: 28.5 µM (inactive)

Question: And the GI50 (SR)?
Answer: 64.4 µM (inactive)

Question: What about the GI50 (SW-620) of the same molecule?
Answer: > 100 µM (inactive)

Question: What about the GI50 (T47D) of the same molecule?
Answer: 0.228 µM (active)

Question: And the GI50 (TK-10)?
Answer: 81.3 µM (inactive)

Question: And the GI50 (U-251)?
Answer: > 97.5 µM (inactive)

Question: What about the GI50 (UACC-257) of the same molecule?
Answer: > 87.3 µM (inactive)

Question: What about the GI50 (UACC-62) of the same molecule?
Answer: 47.5 µM (inactive)

Question: What about the GI50 (UO-31) of the same molecule?
Answer: 69.7 µM (inactive)

Question: What about the GI50 (XF498) of the same molecule?
Answer: 40.1 µM (inactive)
